Data: EP0145493A2, “11-Difluoromethyl and 11-fluoromethylene steroids” (THE UPJOHN COMPANY, priority 1983, dated 1985)

Biological target: T1, progesterone receptor (Oryctolagus cuniculus, UniProt P06186)
T1 construct: 'Rabbit, progesterone = 100%; from tissue; host or cells: Rabbit; From own knowledge, the cited Philibert procedure uses uterine cytosol
T1 sequence (P06186 1-930): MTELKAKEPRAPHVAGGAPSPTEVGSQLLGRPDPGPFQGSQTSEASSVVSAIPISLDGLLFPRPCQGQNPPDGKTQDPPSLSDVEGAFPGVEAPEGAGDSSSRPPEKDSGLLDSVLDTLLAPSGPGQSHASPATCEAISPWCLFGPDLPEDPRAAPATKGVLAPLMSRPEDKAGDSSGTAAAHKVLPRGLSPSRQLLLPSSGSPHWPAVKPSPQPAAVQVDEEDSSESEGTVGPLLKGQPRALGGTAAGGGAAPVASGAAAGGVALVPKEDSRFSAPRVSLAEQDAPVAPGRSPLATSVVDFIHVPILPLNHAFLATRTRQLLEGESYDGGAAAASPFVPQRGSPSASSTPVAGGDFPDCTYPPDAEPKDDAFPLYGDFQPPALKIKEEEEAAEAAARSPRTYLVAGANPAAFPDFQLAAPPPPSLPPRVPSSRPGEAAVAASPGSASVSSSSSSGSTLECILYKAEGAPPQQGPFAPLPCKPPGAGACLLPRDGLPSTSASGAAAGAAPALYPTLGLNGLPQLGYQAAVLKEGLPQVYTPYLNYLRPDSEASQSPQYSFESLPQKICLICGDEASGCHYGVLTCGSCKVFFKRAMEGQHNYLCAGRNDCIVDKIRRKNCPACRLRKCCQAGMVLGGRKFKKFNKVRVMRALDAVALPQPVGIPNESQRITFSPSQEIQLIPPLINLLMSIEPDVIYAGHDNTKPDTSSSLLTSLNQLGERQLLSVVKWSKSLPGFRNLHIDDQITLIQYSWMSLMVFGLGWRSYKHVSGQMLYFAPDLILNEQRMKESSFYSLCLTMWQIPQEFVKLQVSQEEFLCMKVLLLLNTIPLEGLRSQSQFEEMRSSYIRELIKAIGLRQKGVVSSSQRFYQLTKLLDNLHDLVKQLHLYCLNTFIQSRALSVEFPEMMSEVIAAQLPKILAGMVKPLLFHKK
Assay: progesterone receptor relative binding affinity (procedure of Philibert et al.)
Conditions: Rabbit, progesterone = 100%
From the text: Biological information in the form of progesterone receptor relative binding affinity data determined according to the procedure of D. Philibert et al, Endocrinology 101, 1850 (1977) set forth in TABLE 1 discloses the 11β-difluoromethyl and (E)-11-fluoromethylene steroids to be useful as progestins.
'Rabbit, progesterone = 100%

In order of rising “Relative Binding Affinity' (%)” value:
1. CC#C[C@]1(O)CC[C@H]2[C@@H]3CCC4C=CCC[C@@H]4[C@H]3[C@@H](C(F)F)C[C@@]21C (stereo partly drawn) [11β-Difluoromethyl-17β-hydroxy-17α-propynylestr-3-ene]  2%
2. C#C[C@]1(O)CC[C@H]2[C@@H]3CCC4=CCCC[C@@H]4[C@H]3[C@@H](C(F)F)C[C@@]21C [17α-Ethynyl-11β-difluoromethyl-17β-hydroxyestr-4-ene]  2%
3. CC#C[C@]1(O)CC[C@H]2[C@@H]3CCC4=CCCC[C@@H]4[C@H]3[C@@H](C(F)F)C[C@@]21C [11β-Difluoromethyl-17β-hydroxy-17α-propynylestr-4-ene]  3%
4. C[C@]12C[C@H](C(F)F)[C@H]3[C@@H](CCC4=CC(=O)CC[C@@H]43)[C@@H]1CC[C@@H]2O [11β-Difluoromethyl-17β-hydroxyestr-4-en-3-one]  13%
5. CC#C[C@]1(O)CC[C@H]2[C@@H]3CCC4=CC(=O)CC[C@@H]4[C@H]3/C(=C/F)C[C@@]21C [(E)-11-fluoromethylene-17β-hydroxy-17α-propynylestr-4-ene-3-one]  18%
6. C#C[C@]1(O)CC[C@H]2[C@H]3[C@H](/C(=C/F)C[C@@]21C)[C@H]1CCC(=O)C=C1C[C@H]3C [17α-Ethynyl-(E)-11-fluoromethylene-17β-hydroxy-7α-methylestr-4-en-3-one]  34%
7. CC#C[C@]1(O)CC[C@H]2[C@H]3[C@H]([C@@H](C(F)F)C[C@@]21C)[C@H]1CCC(=O)C=C1C[C@H]3C [11β-Difluoromethyl-17β-hydroxy-7α-methyl-17α-propynylestr-4-en-3-one]  41%
8. CC#CC1(OC(C)=O)CCC2C3CCC4=CC(=O)CCC4C3C(C(F)F)CC21C (stereo not drawn) [11β-Difluoromethyl-17β-hydroxy-17α-propynylestr-4-en-3-one 17-acetate]  49%
9. C#CC1(OC(C)=O)CCC2C3CCC4=CC(=O)CCC4C3C(C(F)F)CC21C (stereo not drawn) [17α-Ethynyl-11β-difluoromethyl-17β-hydroxyestr-4-en-3-one 17-acetate]  50%
10. CC#C[C@]1(O)CC[C@H]2[C@H]3[C@H](/C(=C/F)C[C@@]21C)[C@H]1CCC(=O)C=C1C[C@H]3C [(E)-11-Fluoromethylene-17β-hydroxy-7α-methyl-17α-propynylestr-4-en-3-one]  58%
11. CC#C[C@]1(O)CC[C@H]2[C@@H]3CCC4=CC(=O)CC[C@@H]4[C@H]3/C(=C/F)C[C@@]21CC [13β-Ethyl-(E)-11-fluoromethylene-17β-hydroxy-17α-propynylgon-4-en-3-one]  63%
12. C#C[C@]1(O)CC[C@H]2[C@H]3[C@H]([C@@H](C(F)F)C[C@@]21C)[C@H]1CCC(=O)C=C1C[C@H]3C [17α-Ethynyl-11β-difluoromethyl-17β-hydroxy-7α-methylestr-4-en-3-one]  63%
13. CO[C@H]1CC[C@H]2[C@@H]3CCC4=CC(=O)CC[C@@H]4[C@H]3[C@@H](C(F)F)C[C@]12C [11β-Difluoromethyl-17β-hydroxyestr-4-en-3-one 17-methyl ether]  66%
14. CC#C[C@]1(O)CC[C@H]2[C@@H]3CCC4=CC(=O)CC[C@@H]4[C@H]3[C@@H](C(F)F)C[C@@]21C [11β-Difluoromethyl-17β-hydroxy-17α-propynylestr-4-en-3-one]  68%
15. CC#CC1(OC)CCC2C3CCC4=CC(=O)CCC4C3C(=CF)CC21C (stereo not drawn) [(E)-11-Fluoromethylene-17β-hydroxy-17α-propynylestr-4-en-3-one 17-methyl ether]  71%
16. C#C[C@]1(O)CC[C@H]2[C@@H]3CCC4=CC(=O)CC[C@@H]4[C@H]3/C(=C/F)C[C@@]21C [17α-Ethynyl-(E)-11-fluoromethylene-17β-hydroxyestr-4-en-3-one]  74%
17. CC#CC1(OC)CCC2C3CCC4=CC(=O)CCC4C3C(C(F)F)CC21C (stereo not drawn) [11β-Difluoromethyl-17β-hydroxy-17α-propynylestr-4-en-3-one 17-methyl ether]  90%
18. C#CC1(O)CCC2C3CCC4=CC5(CCC4C3C(C(F)F)CC21C)SCCS5 (stereo not drawn) [17α-Ethynyl-11β-difluoromethyl-17β-hydroxyestr-4-ene-3-one 3-ethanedithiol ketal]  92%
19. C#C[C@]1(O)CC[C@H]2[C@@H]3CCC4=CC(=O)CC[C@@H]4[C@H]3/C(=C/F)C[C@@]21CC [13β-Ethyl-17α-ethynyl-(E)-11-fluoromethylene-17β-hydroxygon-4-en-3-one]  100%
20. C#CC1(OC)CCC2C3CCC4=CC(=O)CCC4C3C(C(F)F)CC21C (stereo not drawn) [17α-Ethynyl-11β-difluoromethyl-17β-hydroxyestr-4-en-3-one 17-methyl ether]  145%
21. CC#C[C@]1(O)CC[C@H]2[C@@H]3CCC4=CC(=O)CC[C@@H]4[C@H]3/C(=C\F)C[C@@]21CC [13β-Ethyl-(Z)-11-fluoromethylene-17β-hydroxy-17α-propynylgon-4-en-3-one]  149%
22. C#C[C@]1(O)CC[C@H]2[C@@H]3CCC4=CC(=O)CC[C@@H]4[C@H]3/C(=C\F)C[C@@]21C [17α-Ethynyl-(Z)-11-fluoromethylene-17β-hydroxyestr-4-en-3-one]  149%
23. CC#C[C@]1(O)CC[C@H]2[C@@H]3CCC4=CC(=O)CC[C@@H]4[C@H]3/C(=C\F)C[C@@]21C [(Z)-11-Fluoromethylene-17β-hydroxy-17-propynylestr-4-en-3-one]  150%
